From patent US5843735A, “Aklavinone C-11 hydroxylase, gene coding for same, expression vector therefor, and process for preparing hybrid antibiotics by using said vector” (priority 1995, dated 1998) come the findings set out here.

Read-outs that look alike come from different tables or passages of the source. Where only a bound is given, the exact number is not on record here.

The test system of series [1] is UO-31. Kind of series: Anticancer activity, reduced human cancer cell line panel (NCI method), Renal Cancer. In kind it is cell-based. To be noted: UO-31, read-out: Log10 LC50 (converted). On the procedure: (§1) The anticancer activities of aclacinomycin X, 11-hydroxy aclacinomycin X and 11-hydroxy aclacinomycin A were determined by using a reduced human cancer cell line panel(supplier: National Cancer Institute, U.S.A.) in accordance with the method of National Cancer Institute, U.S.A. (Monks, A., et al., J. Natl. Cancer Inst., 83, 757-766(1991)), and the results are shown in Table I.

Series [2] has as its system 786-0. The description is as above. It is filed as cell-based. The conditions noted are these: 786-0, read-out: Log10 LC50 (converted). As for the experimental part: as §1
Series [3] can be described thus: Solubility in organic solvents. The conditions noted are these: methanol (MeOH), chloroform (CHCl3).
In series [4] the test system is HCC-2298. As to the kind of experiment: Anticancer activity, reduced human cancer cell line panel (NCI method), Colon Cancer. In kind it is cell-based. On the procedure: as §1
The subject of series [5] is HT29. The description is as above. In kind it is cell-based. On the procedure: as §1
Series [6] has as its system SK-MEL-2. Kind of series: Anticancer activity, reduced human cancer cell line panel (NCI method), Melanoma. The conditions noted are these: SK-MEL-2, read-out: Log10 LC50 (converted). In kind it is cell-based. On the procedure:
as §1

In series [7] the test system is MALME-3M. The series is described as above. In kind it is cell-based. To be noted: read-out: Log10 LC50 (converted). On the procedure: as §1
For series [8], the system named is human cancer cell lines. Kind of series: Anticancer / growth inhibiting activity against the human cancer cell line panel, overall. It is filed as cell-based. To be noted: for growth inhibiting activities compared with aclacinomycin A: various human cancer cell lines. As for the experimental part:
as §1

The subject of series [9] is EKVX. Kind of series: Anticancer activity, reduced human cancer cell line panel (NCI method), Non-Small Cell Lung Cancer. In kind it is cell-based. The conditions noted are these: read-out: Log10 LC50 (converted). As for the experimental part:
as §1

In series [10] the test system is A-549. The description is as above. In kind it is cell-based. On the procedure: as §1
For series [11], the system named is HL-60 TB. As to the kind of experiment: Anticancer activity, reduced human cancer cell line panel (NCI method), Leukemia. It is filed as cell-based. To be noted: for LC50 (50% lethal concentration): Leukemia, HL-60 TB, read-out: Log10 LC50 (converted). On the procedure:
as §1

For series [12], the system named is K-562. The description is as above. It is filed as cell-based. On the procedure:
as §1

Series [13] deals with DU-145. As to the kind of experiment: Anticancer activity, reduced human cancer cell line panel (NCI method), Prostate Cancer. It is filed as cell-based. The conditions noted are these: DU-145, read-out: Log10 LC50 (converted). On the procedure:
as §1

For series [14], the system named is PC-3. Described as above. It is filed as cell-based. The conditions noted are these: PC-3, read-out: Log10 LC50 (converted). On the procedure:
as §1

The test system of series [15] is SF-268. As to the kind of experiment: Anticancer activity, reduced human cancer cell line panel (NCI method), CNS Cancer. In kind it is cell-based. To be noted: SF-268, read-out: Log10 LC50 (converted). As for the experimental part:
as §1

Series [16] concerns U251. The series is described as above. It is filed as cell-based. On the procedure: as §1
In series [17] the test system is SK-OV-3. As to the kind of experiment: Anticancer activity, reduced human cancer cell line panel (NCI method), Ovarian Cancer. It is filed as cell-based. To be noted: SK-OV-3, read-out: Log10 LC50 (converted). As for the experimental part:
as §1

The subject of series [18] is OVCAR-3. The series is described as above. In kind it is cell-based. To be noted: OVCAR-3, read-out: Log10 LC50 (converted). As for the experimental part: as §1
For series [19], the system named is MCF7. As to the kind of experiment: Anticancer activity, reduced human cancer cell line panel (NCI method), Breast Cancer. The conditions noted are these: MCF7, read-out: Log10 LC50 (converted). It is filed as cell-based. On the procedure: as §1
Series [20] has as its system MDA-N. The description is as above. It is filed as cell-based. The conditions noted are these: read-out: Log10 LC50 (converted). On the procedure:
as §1

Setting [21] is: HT-29, Colon Cancer, HT29, read-out: Log10 LC50 (converted).
[22] abbreviates: A549, Non-Small Cell Lung Cancer, A-549, read-out: Log10 LC50 (converted).
The mark [23] stands for this setting: K562, Leukemia, K-562, read-out: Log10 LC50 (converted).
Setting [24] is: U-251, CNS Cancer, U251, read-out: Log10 LC50 (converted).

The LC50 is the concentration that kills 50% of the test population.

For the compound `CC[C@@]1(O)C[C@H](O[C@H]2C[C@H](N(C)C)[C@H](O[C@H]3C[C@H](O)[C@H](O[C@H]4CCC(=O)[C@H](C)O4)[C@H](C)O3)[C@H](C)O2)c2c(O)c3c(c(O)c2[C@H]1C(=O)OC)C(=O)c1cccc(O)c1C3=O` [11-Hydroxy aclacinomycin A, 11-hydroxy aclacinomycin A], the CC50 in series [1] was 19.1 µM; in [4] (read-out: Log10 LC50 (converted)), below 10 nM; in series [5] (HT-29, read-out: Log10 LC50 (converted)), 12.9 µM; in [6] it was below 10 nM; in [9], 257 nM; in series [11] (HL-60, read-out: Log10 LC50 (converted)) it was below 10 nM. Besides, the CC50 in [12] (K562, read-out: Log10 LC50 (converted)) is 1.78 µM; in [15], 79.4 µM; in series [16] (U-251, read-out: Log10 LC50 (converted)) it was 56.2 µM; in series [17], 38.9 µM; in [18], 72.4 µM; in series [20] it was 100 µM. The LC50 (50% lethal concentration) in [2] is 8.32 µM; in series [19] it was 25.1 µM. Moreover, in series [3], the “dissolves easily (solubility)” value is reported as “dissolves easily in MeOH or CHCL3”. Besides, the LC50 (concentration killing 50% of cells) in series [7] (Malme-3M) is 67.6 nM. In addition, the anticancer activity entry in [8] (leukemia, colon cancer and melanoma cell lines) is given as “high anticancer activity”. Moreover, in series [8], the “growth inhibiting activities compared with aclacinomycin A” value was “higher growth inhibiting activities than aclacinomycin A”. Also, the LC50 in [10] (A549, read-out: Log10 LC50 (converted)) is 24.5 µM; in [13] it was 24.5 µM; in series [14] it was 14.5 µM.

As for `CC[C@@]1(O)C[C@H](O[C@H]2C[C@H](N(C)C)[C@H](O)[C@H](C)O2)c2c(O)c3c(c(O)c2[C@H]1C(=O)OC)C(=O)c1cccc(O)c1C3=O` [11-Hydroxy aclacinomycin T, 11-hydroxy aclacinomycin T], the “dissolves easily (solubility)” value in [3] is “dissolves easily in MeOH or CHC13”.

In the case of `CC[C@@]1(O)C[C@H](O[C@H]2C[C@H](N(C)C)[C@H](O[C@H]3C[C@H](O)[C@H](O[C@@H]4O[C@@H](C)C(=O)C=C4N)[C@H](C)O3)[C@H](C)O2)c2c(O)c3c(c(O)c2[C@H]1C(=O)OC)C(=O)c1cccc(O)c1C3=O` [11-Hydroxy aclacinomycin X, 11-hydroxy aclacinomycin X], the CC50 in series [1] (Renal Cancer) was 15.5 µM; in [5] (setting [21]), 47.9 µM; in [6] (Melanoma) it was below 10 nM; in series [9] (Non-Small Cell Lung Cancer) it was 977 nM; in series [12] (setting [23]), 7.59 µM; in [15] (CNS Cancer), above 100 µM. The CC50 in series [16] (setting [24]), in series [18] (Ovarian Cancer) and in series [20] (Breast Cancer) was above 100 µM in each case. Further, the figures for the LC50 (50% lethal concentration) in series [2] (Renal Cancer), in [11] and in series [19] (Breast Cancer) were 4.57 µM, 0.234 µM and 30.9 µM, respectively. Also, in series [3], the “dissolves easily (solubility)” value is “dissolves easily in MeOH or CHCl3”. Also, the LC50 (concentration killing 50% of cells) in [7] (Melanoma, MALME-3M) is 53.7 nM. Further, the “anticancer activities compared with aclacinomycin X” value in series [8] (leukemia, melanoma and breast cancer cell lines) is “higher than aclacinomycin X”. Besides, the “growth inhibiting activities compared with aclacinomycin A” value in series [8] is “higher growth inhibiting activities than aclacinomycin A”. For the same compound, the LC50 in [10] (setting [22]) was 21.4 µM; in series [13] (Prostate Cancer), 41.7 µM; in series [14] (Prostate Cancer), 6.76 µM.

`CC[C@@]1(O)C[C@H](O[C@H]2C[C@H](N(C)C)[C@H](O[C@H]3C[C@@H]4OC5CC(=O)C(C)OC5O[C@@H]4[C@H](C)O3)[C@H](C)O2)c2c(O)c3c(c(O)c2[C@H]1C(=O)OC)C(=O)c1cccc(O)c1C3=O` (stereo partly drawn) [11-hydroxy aclacinomycin B]: in series [3], the “dissolves easily (solubility)” value is “dissolves easily in MeOH and CHC13”.

As to `CC[C@@]1(O)C[C@H](O[C@H]2C[C@H](N(C)C)[C@H](O[C@H]3C[C@H](O)[C@H](O[C@@H]4O[C@@H](C)C(=O)C=C4N)[C@H](C)O3)[C@H](C)O2)c2c(cc3c(c2O)C(=O)c2c(O)cccc2C3=O)[C@H]1C(=O)OC` [Aclacinomycin X, aclacinomycin X], the CC50 is 26.3 µM in series [1] (Renal Cancer); 191 nM in series [4] (Colon Cancer, HCC-2298, read-out: Log10 LC50 (converted)); 30.9 µM in series [5] (setting [21]); 52.5 nM in [6] (Melanoma); 18600 nM in series [9] (Non-Small Cell Lung Cancer); 60.3 µM in series [12] (setting [23]). Moreover, the CC50 in series [15] (CNS Cancer) is 11.2 µM; in [16] (setting [24]), 18.2 µM; in series [17] (Ovarian Cancer), above 100 µM; in [18] (Ovarian Cancer) it was above 100 µM; in series [20] (Breast Cancer), above 100 µM. Besides, the LC50 (50% lethal concentration) was 18.2 µM in series [2] (Renal Cancer), 30.9 µM in series [11] and 43.7 µM in [19] (Breast Cancer). Further, the “dissolves easily (solubility)” value in series [3] is given as “dissolves easily in methanol or chloroform”. In series [7] (Melanoma, MALME-3M), the LC50 (concentration killing 50% of cells) is 562 nM. Further, in series [8] (colon cancer, melanoma and breast cancer cell lines), the selective anticancer activities entry is “selective anticancer activities against colon cancer, melanoma and breast cancer cell lines”. The “growth inhibiting activities compared with aclacinomycin A” value in [8] was “higher growth inhibiting activities than aclacinomycin A”. The figures for the LC50 in series [10] (setting [22]), in series [13] (Prostate Cancer) and in [14] (Prostate Cancer) were 4.07 µM, 30.2 µM and 8.32 µM, respectively.
